Source: ChEMBL document CHEMBL3508693 (2016)

Legend:
[1] = Concentration of radioactivity in the colon wall following repeated oral administration of [14C] aliskiren hemifumarate at 100 mg.Kg-1 level studied at 24h after 10th dose in rat; assay type: ADME, organism-based, Albino HAN:WIST; conditions: in vivo
[2] = % of radioactivity recovered as aliskiren in plasma following oral administration of [14C] aliskiren hemifumarate at 100 mg.Kg-1 level in rat; assay type: ADME, organism-based, Albino HAN:WIST; conditions: in vivo
[3] = % of radioactivity recovered as aliskiren in urine following intravenous administration of [14C] aliskiren hemifumarate at 10 mg.Kg-1 level in rat; assay type: ADME, organism-based, Albino HAN:WIST; conditions: in vivo
[4] = AUC of unlabeled aliskiren hemifumarate following single oral dose of aliskiren hemifumarate at 500 mg.Kg-1 level in mouse; assay type: ADME, organism-based; conditions: TgRasH2, mouse, plasma

Compound: COCCCOc1cc(C[C@@H](C[C@H](N)[C@@H](O)C[C@H](C(=O)NCC([14CH3])([14CH3])C(N)=O)C(C)C)C(C)C)ccc1OC.O=C(O)/C=C/C(=O)O
- Radiolabel recovery [1]: OUTCOME = Observed, VALUE = Highest radioactivity concentration was observed

Compound: COCCCOc1cc(C[C@@H](C[C@H](N)[C@@H](O)C[C@H](C(=O)NCC(C)(C)C(N)=O)C(C)C)C(C)C)ccc1OC
- Compound recovery [2]: > 40%
- Compound recovery [3]: > 2%

Compound: COCCCOc1cc(C[C@@H](C[C@H](N)[C@@H](O)C[C@H](C(=O)NCC(C)(C)C(N)=O)C(C)C)C(C)C)ccc1OC.COCCCOc1cc(C[C@@H](C[C@H](N)[C@@H](O)C[C@H](C(=O)NCC(C)(C)C(N)=O)C(C)C)C(C)C)ccc1OC.O=C(O)/C=C/C(=O)O [ALISKIREN FUMARATE]
- AUC [4]: 7.04 µM·h
